# Values of other authors in US4197292A, “Novel amylase inhibitors” (Taisho Pharmaceutical Co., priority 1978, dated 1980).
# System: β-glucosidase
# Details: prior art inhibitor
compound,measurement,value
OC[C@H]1NC(O)[C@H](O)[C@@H](O)[C@@H]1O (stereo partly shown) [Nojirimycin],inhibitory activity to β-glucosidase (in words),has inhibitory activity
